Source: patent US5447944A, “Carbamoyl-2-pyrrolidinone compounds” (Taiho Pharmaceutical Company, Limited, priority 1988, dated 1995)
Read-outs that look alike come from different tables or passages of the source.

Tests used:
[1] = Antianoxic activity test (Test Example 2): effect on the survival time under low-oxygen load at atmospheric pressure; assay type: in vivo, mice (ddY, five-week-old males); settings: read-out: Antianoxia activity [increase ratio (%) of the survival time]
Text: Antianoxic activity test (effect on the survival time under low-oxygen load at atmospheric pressure)
Groups of 10 mice (ddY, five-week-old males) were used for the experiment with reference to Japan Journal of Pharmacology, 81, 421~429 (1983), same, 86, 323~328 (1985) and same, 89, 355~363 (1987). The test compound was orally given to the mouse as dissolved or suspended in 0.5% solution of sodium carboxymethyl cellulose, the mouse was placed into a transparent plastics container (13×13×16 cm) having a vent, and a gas mixture of 96% nitrogen and 4% oxygen was passed through the container at a rate of 5 liters/min.

[2] = Reversal activity of amnesia (Test Example 1): scopolamine-induced amnesia, step-through passive avoidance, antiamnesia effect; assay type: in vivo, rats (Wistar, males); settings: read-out: Antiamnesia effect [increase ratio (%) of the step-through latency]; for change in vivo at 10 mg/kg: 10 mg/kg oral
Protocol: Reversal activity of amnesia
Groups of 6 to 16 rats (Wistar, males, weighing 170 to 240 g) were used for the experiment.
Scopolamine was used as dissolved in physiological saline, and the test compound as dissolved or suspended in 0.5% solution of sodium carboxymethyl cellulose.
Scopolamine was subcutaneously given at a dose of 0.5 mg/kg 30 minutes before aquisition trials. The test compound was orally given immediately after the aquisition trials.
The rat was subjected to habituation trials about 1 hour before aquisition trials. The habituation was accomplished by placing the rat into the light compartment, opening the door 5 seconds thereafter, closing the door when the four legs completely entered the dark compartment, leaving the rat in the dark compartment for 10 seconds and thereafter taking out the rat. The acquisition trial was accomplished in the same manner as the habituation 1 hour thereafter except that simultaneously when the door was closed upon the movement of the rat into the dark compartment, an unescapable foot shock of 4.5 mA was given to the rat by the floor grit for 1 second.
A retention test was conducted 24 hours after the aquisition trials to measure the step-through latency during which the rat placed into the light compartment remained therein before moving into the dark compartment, i.e., the duration of a passive avoidance reaction.

[3] = Acute toxicity test (Test Example 3); settings: mouse, in vivo
Protocol: Mice (ddY, five-week-old males) were used in groups of 4 to 5 mice each. The test compound was dissolved or suspended in 0.5% solution of sodium carboxymethyl cellulose and administered orally. […] Many of the test compounds produced symptoms of sedation or mascular relaxation for 30 minutes to 6 hours, followed by gradual recovery. The original state was restored two days later.

[4] = 30 mg/kg oral, mouse, 96% nitrogen and 4% oxygen, vs control group
[5] = 100 mg/kg oral, mouse, 96% nitrogen and 4% oxygen, vs control group
[6] = 300 mg/kg oral, mouse, 96% nitrogen and 4% oxygen, vs control group
[7] = rat, retention test 24 hours after acquisition, scopolamine 0.5 mg/kg s.c., vs control group
[8] = 30 mg/kg oral, rat, retention test 24 hours after acquisition, scopolamine 0.5 mg/kg s.c., vs control group
[9] = 100 mg/kg oral, rat, retention test 24 hours after acquisition, scopolamine 0.5 mg/kg s.c., vs control group
[10] = 300 mg/kg oral, rat, retention test 24 hours after acquisition, scopolamine 0.5 mg/kg s.c., vs control group

SMILES	ILS at 30 mg/kg ([1]; Mus musculus, po) [%]	ILS at 100 mg/kg ([1]; Mus musculus, po) [%]	ILS at 300 mg/kg ([1]; Mus musculus, po) [%]	change in vivo at 30 mg/kg ([2]; Rattus norvegicus, po, 24 h) [%]	change in vivo at 100 mg/kg ([2]; Rattus norvegicus, po, 24 h) [%]	change in vivo at 300 mg/kg ([2]; Rattus norvegicus, po, 24 h) [%]	LD50 at 72 h ([3]; po) [mg/kg]	ILS at 30 mg/kg [1, 4] [%]	ILS at 100 mg/kg [1, 5] [%]	ILS at 300 mg/kg [1, 6] [%]	change in vivo at 10 mg/kg [2, 7] [%]	change in vivo at 30 mg/kg [2, 8] [%]	change in vivo at 100 mg/kg [2, 9] [%]	change in vivo at 300 mg/kg [2, 10] [%]	LD50 at 72 h ([3]; oral, observed for 3 days) [mg/kg]
COc1ccc(C(=O)N2CCCC2=O)cc1 [Aniracetam, reference compound]	19	26	23	230	288	42	–	–	–	–	–	–	–	–	–
O=C1CCCN1C(=O)Nc1ccccc1 [Compound 1]	–	–	–	–	–	–	> 5000	-15	15	39	360	623	367	230	–
COc1ccc(NC(=O)N2CCCC2=O)cc1 [Compound 2, 1-(4-methoxyphenylcarbamoyl)-2-pyrrolidinone]	–	–	–	–	–	–	–	11	5	27	346	557	623	507	> 5000
O=C1CCCN1C(=O)Nc1ccc(Cl)cc1 [Compound 3]	–	–	–	–	–	–	> 2000	11	15	46	–	–	–	–	–
CN(C)c1ccc(NC(=O)N2CCCC2=O)cc1 [Compound 5]	–	–	–	–	–	–	–	-4	22	9	119	598	213	79	< 5000
COc1ccc(NC(=O)N2CCCC2=O)cc1OC [Compound 6]	–	–	–	–	–	–	> 5000	0	-4	14	–	138	568	596	–
COc1cc(NC(=O)N2CCCC2=O)cc(OC)c1OC [Compound 7]	–	–	–	–	–	–	5000	4	11	66	–	-10	209	345	–
O=C1CCCN1C(=O)Nc1cccc2c1CCCC2 [Compound 8]	–	–	–	–	–	–	> 5000	30	25	20	125	531	490	414	–
O=C1CCCN1C(=O)Nc1ccncc1 [Compound 9]	–	–	–	–	–	–	–	13	12	16	-7	245	157	41	< 5000
O=C1CCCN1C(=O)Nc1nccs1 [Compound 10]	–	–	–	–	–	–	5000	-4	-1	35	–	166	144	475	–
O=C1CC(O)CN1C(=O)Nc1ccccc1 (stereo not drawn) [Compound 11, 1-phenylcarbamoyl-4-hydroxy-2-pyrrolidinone]	–	–	–	–	–	–	–	11	62	96	–	346	198	518	–
COc1ccc(NC(=O)N2CC(O)CC2=O)cc1 (stereo not drawn) [Compound 12]	–	–	–	–	–	–	–	5	7	63	–	–	–	–	–
CC1CCN(C(=O)Nc2ccccc2)C1=O (stereo not drawn) [Compound 13]	–	–	–	–	–	–	> 2000	9	87	37	–	–	–	–	–
COc1ccc(NC(=O)N2CCC(C)C2=O)cc1 (stereo not drawn) [Compound 14, 3-methyl-1-(4-methoxyphenylcarbamoyl)-2-pyrrolidinone]	–	–	–	–	–	–	–	9	26	34	–	75	6	1	> 5000
COc1ccc(NC(=O)N2C(=O)CCC2C)cc1 (stereo not drawn) [Compound 15]	–	–	–	–	–	–	> 5000	-3	-1	11	–	25	148	672	–
O=C1CCC(CO)N1C(=O)Nc1ccccc1 (stereo not drawn) [Compound 16, 5-hydroxymethyl-1-phenylcarbamoyl-2-pyrrolidinone]	–	–	–	–	–	–	–	10	36	89	–	135	103	50	5000
